Laboratory results published in patent publication EP0199238A1, “1,4-Dihydropyridine derivatives, process for their preparation and their use in medicaments” (BAYER AG, priority 1985, dated 1986).

Test system: SH-Ratte
Assay: Blood pressure measurement in conscious rats (tail cuff, oral administration)
Type: in vivo
Details: Rattus norvegicus, oral by gavage, lowest dose that still gives at least 15 mm Hg fall in systolic blood pressure, read-out: Grenzdosis der antihypertensiven Wirkung
Experimental: Blutdruckmessung bei wachen Ratten
Meßmethode: In Anlehnung an das von Breuninger beschriebene Verfahren wird der Blutdruck am Schwanz der nicht narkotisierten Ratte unblutig mittels aufblasbarer Gummimanschette und Infraton-Pulsabnehmer D nach Boucke-Brecht gemessen. Die Tiere befinden sich während des ganzen Versuches, einschlieBlich einer 2-stündigen Vorperiode, einzeln in einem Wassermantel umgeben, auf ca. 30°C temperierten Kunststoffröhren. Die aufblasbare Gummimanschette sitzt an der Schwanzwurzel, der Pulsabnehmer 2-5 cm distal davon. Zur Erzielung gleichmäßiger Meßresultate ist für die wiederholten Messungen die Meßstelle am Schwanz mit Tusche markiert.
Der gesamte Meßvorgang wird auf einem 2-Kanal-Direktschreiber oder einem Speicher-Oszillografen (Tektronix) registriert, im 1. Kanal die Pulsationen der Schwanzarterie, im 2. Kanal die Impulse eines Druckmarkengebers, der den jeweils in der Manschette herrschenden Druck anzeigt. Gemessen wird bei abfallendem Manschettendruck. Als Meßwert wird der in der Manschette herrschende Druck bei Wiederauftreten der Pulsationen benutzt. Er entspricht dem systolischen Blutdruck im Rattenschwanz. […]
Bei der quantitativen Bestimmung von Dosis-Wirkungskurven wird für jedes Tier die Wirkung als mittlere prozentuale Blutdrucksenkung gegenüber dem Ausgangsblutdruck, gemittelt über den Versuchszeitraum von 6 Stunden, angegeben. […]

## COC(=O)C1=C(C)NC(C)=C(C(=O)OCC(C)(C)O)C1c1ccccc1[N+](=O)[O-] (stereo not shown) [Beispiel 3, 1,4-Dihydro-2,6-dimethyl-4-(2-nitrophenyl)-pyridin-3,5-dicarbonsäure-(2-hydroxy-2-methyl-propyl)-methyl-ester]
  minimal effective dose: 1 mg/kg
